The values that follow come from patent US8563742B2, “Substituted aminothiazole derivatives, pharmaceutical compositions, and methods of use” (High Point Pharmaceuticals, LLC, priority 2008, dated 2013).

Structures are written as SMILES.

Data set [1] can be described thus: Stability in Liver Microsomes (human). It counts as in vitro ADME. To be noted: 1 μM, 0.5 mg protein/mL, NADPH, 60 minutes, 37° C., pH 7.4. An outline of the steps: (§1)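 Compound at 1 μM final was incubated with liver microsomes (0.5 mg protein/mL) and NADPH in pH 7.4 phosphate buffer for 60 minutes at 37° C., in duplicate. Reactions were stopped with methanol and analysed by LC/MS. Results are given as percent parent remaining after 1 hour.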
A general note: Microsomes from liver hold many membrane-bound enzymes, among them those of drug oxidation.

The nature of data set [2]: Pharmacokinetic screening in rats (plasma and brain). As to conditions: rat, 5 mg/kg PO.
For another data set, the target named is T1, human MC-4R (Homo sapiens, UniProt P32245).
T1 construct: expressed in transfected cells
T1 sequence (P32245 whole entry): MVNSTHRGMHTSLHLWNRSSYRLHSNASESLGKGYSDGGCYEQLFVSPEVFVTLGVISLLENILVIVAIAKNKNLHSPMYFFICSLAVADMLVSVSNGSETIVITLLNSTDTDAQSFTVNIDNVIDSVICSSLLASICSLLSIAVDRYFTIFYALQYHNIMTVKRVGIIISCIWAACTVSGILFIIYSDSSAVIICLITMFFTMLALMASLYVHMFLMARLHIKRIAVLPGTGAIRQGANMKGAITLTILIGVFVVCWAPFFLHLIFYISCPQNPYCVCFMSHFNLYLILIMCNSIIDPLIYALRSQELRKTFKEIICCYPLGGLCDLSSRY
As to the kind of experiment: Biological Assay: inhibition of AgRP functional interaction with MC-4R in presence of αMSH (cAMP production). As to conditions: HEK293 cells expressing human MC-4R, AgRP83-132 and αMSH present; read-out: Average EC50 (nM) in Biological Assay. It counts as cell-based. An outline of the steps:
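HEK293 cells stably expressing human MC-4R (20,000/well) in EBSS/HEPES pH 7.4 with 0.5 mM IBMX. Compounds preincubated 30 min at room temperature with human AgRP83-132, then cells added and stimulated with αMSH 30 min at 37 °C. Intracellular cAMP measured after lysis; inhibition of AgRP seen as increased cAMP.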

Data set [3] in a line: Stability in Liver Microsomes (monkey). To be noted: 1 μM, 0.5 mg protein/mL, NADPH, 60 minutes, 37° C., pH 7.4. It is filed as in vitro ADME. An outline of the steps:
as §1

In data set [4] the test system is adult male Sprague Dawley rats. Put plainly: Feeding Study (icv AgRP, food intake and body weight). It is filed as in vivo, Rat. On the procedure:
27 adult male Sprague Dawley rats (Charles River Laboratories) were implanted with right lateral cerebral ventricular cannulas and allowed to recover for one week. After one week, animals were then randomized into 4 groups that were matched for food intake and body weight: water gavage-icv saline (n=6); Example 7 gavage-icv saline (n=7); water gavage-icv AgRP (n=7); Example 7 gavage-icv AgRP (n=7). Water or Example 7 (30 mg/kg) was administered at by oral gavage followed by icv injection of either saline or 0.2 nmol human AgRP 83-132. AgRP stimulated food intake and body weight gain over the next 24 h compared to saline controls. Both of these effects of AgRP were blocked by injection administration of Example 7.
On day 2 a second dose of Example 7 (30 mg/kg) or water was administered by oral gavage. On day 3, water or Example 7 (30 mg/kg) was administered for the third and final time by oral gavage followed by icv injection of either saline or 0.2 nmol human AgRP83-132. Food intake and body weight were monitored daily and animals were sacrificed on day 5.

The subject of the next data set is OVX rats. As to the kind of experiment: Sexual Behavior, sub-chronic regimen in OVX rats. It counts as in vivo, Rat. To be noted: 30 mg/kg/day PO, 5 days. On the procedure:
Rats were ovariectomized (OVX) under ketamine/xylazine anesthesia with 8 rats per group. OVX rats were then administered estradiol benzoate (10 micrograms) 48 hours and progesterone (500 micrograms) 4 hours before five baseline tests of sexual behavior with sexually vigorous stud males. Tests were 30 minutes in duration and were conducted at 4-day intervals. All females developed normal rates of appetitive and consummatory sexual behavior. Following this baseline test phase, females were switched to an estrogen-alone baseline phase, during which they were administered estradiol benzoate (10 micrograms) 48 hours before tests of sexual behavior with sexually vigorous males. These tests were conducted at 14-day intervals, to assure low rates of appetitive responding (e.g., solicitations, hops and darts). After the second test, females were assigned randomly to 4 groups, a saline control, two doses of Example 7 antagonist (10 and 30 mg/kg, PO), and a positive control using melanotan II (MT-II) (1 mg/kg, SC). The saline control and Example 7 were gavaged daily for 5 days prior to the test. The MT-II control was injected acutely 5 min prior to the test. The test was recorded on video and scored by a technician blind to which drug the animals were receiving. Behaviors were subjected to one-way ANOVAs. For each significant effect, posthoc tests were conducted on the means using the Tukey method, P<0.05.

Data set [5] can be described thus: Stability in Liver Microsomes (rat). It is filed as in vitro ADME. To be noted: 1 μM, 0.5 mg protein/mL, NADPH, 60 minutes, 37° C., pH 7.4. Put shortly: as §1
Data set [6] is described as follows: Stability in Liver Microsomes (dog). It counts as in vitro ADME. As to conditions: 1 μM, 0.5 mg protein/mL, NADPH, 60 minutes, 37° C., pH 7.4. An outline of the steps:
as §1

The nature of data set [7]: Stability in Liver Microsomes (mouse). It is filed as in vitro ADME. As to conditions: 1 μM, 0.5 mg protein/mL, NADPH, 60 minutes, 37° C., pH 7.4. An outline of the steps:
as §1

[8] abbreviates: 30 mg/kg oral gavage + icv saline compared to water + icv saline.
Where [9] appears, read: 30 mg/kg oral gavage, icv 0.2 nmol human AgRP 83-132, 24 h.

What is called EC50 is the concentration giving half of the maximal effect. On to `Cc1ccc(CN(CCC(=O)[O-])c2nc([C@H]3CC[C@H](C(C)(C)C)CC3)cs2)s1.[Na+]` [Example 7, Sodium; 3-[[4-(trans-4-tert-butyl-cyclohexyl)-thiazol-2-yl]-(5-methyl-thiophen-2-ylmethyl)-amino]-propionate], for which, in data set [1], the “Stability in Liver Microsomes (% remaining after 1 hour incubation) Human” value is reported as 78%. This compound yielded a concentration at 2 h in data set [2] (male, Sprague Dawley, plasma, po, 5 mg/kg, Plasma - 2 hours (ng/mL), 2 hour time point) of 6460 ng/mL. Also, the “Brain - 24 hours AUC (h * ng/g)” value in data set [2] (24 hour study) is on record as “++++ (values above 20,000 h*ng/g)”. Moreover, the EC50 at human MC-4R stood at 159 nM. The “Stability in Liver Microsomes (% remaining after 1 hour incubation) Monkey” value in data set [3] was 67%. Moreover, in data set [4] (setting [8]), the “effect on food intake, icv saline” value is reported as “no significant effect” and the “effect on weight gain, icv saline” value is recorded as “no significant effect”. In data set [4] (30 mg/kg oral gavage days 1, 2, 3, icv AgRP days 1 and 3, to day 5), the “cumulative weight gain over the entire period, Example 7 + icv AgRP” value is given as “less than 15 grams”. Further, in data set [4] (setting [9]), the “effect on AgRP stimulated body weight gain” value is recorded as “blocked” and the “effect on AgRP stimulated food intake” value is listed as “blocked”. In the data set with OVX rats, the “increase of mean frequency of high-intensity lordosis postures, factor relative to saline” value came to 3.5 and the “increase of mean number of solicitations, factor relative to saline” value is 6. In the data set on OVX rats (MT-II 1 mg/kg SC), the “increase of mean frequency of high-intensity lordosis postures, factor relative to MT-II” value is listed as 3.2 and the “increase of mean number of solicitations, factor relative to MT-II” value is on record as 2. The “Stability in Liver Microsomes (% remaining after 1 hour incubation) Rat” value in [5] was 57%. Besides, the “Stability in Liver Microsomes (% remaining after 1 hour incubation) Dog” value in [6] is given as 66%. Moreover, the “Stability in Liver Microsomes (% remaining after 1 hour incubation) Mouse” value in data set [7] came to 68%.
